Laboratory results published in ChEMBL document CHEMBL3046084, “Synthesis and evaluation of p-N,N-dialkyl substituted chalcones as anti-cancer agents” (Med Chem Res, 2013).
pIC50: −log10 of the molar value. Activity calls are given as the source filed them. The rule behind the calls is not given here.

Columns and labels:
MCF7 = assay: Anticancer activity against Homo sapiens (human) MCF7 cells assessed as inhibition of cell viability by SRB assay; type: functional, cell-based
[1] = test system: Mycolicibacterium smegmatis; assay: Anti-mycobacterial activity against Mycobacterium smegmatis assessed as diameter of growth inhibition zone at 10 mM; type: functional; conditions: read-out: DIZ
[2] = target: Beta-secretase 1 (Homo sapiens) (UniProt P56817); assay: Inhibition of Homo sapiens (human) recombinant BACE1 using FRET peptide Abz-YIWDEIDLMVLD-DNP as substrate at 50 uM preincubated with enzyme for 30 min prior to substrate addition measured by plate reader analysis
Sequence of Beta-secretase 1 (Homo sapiens) (P56817 whole entry): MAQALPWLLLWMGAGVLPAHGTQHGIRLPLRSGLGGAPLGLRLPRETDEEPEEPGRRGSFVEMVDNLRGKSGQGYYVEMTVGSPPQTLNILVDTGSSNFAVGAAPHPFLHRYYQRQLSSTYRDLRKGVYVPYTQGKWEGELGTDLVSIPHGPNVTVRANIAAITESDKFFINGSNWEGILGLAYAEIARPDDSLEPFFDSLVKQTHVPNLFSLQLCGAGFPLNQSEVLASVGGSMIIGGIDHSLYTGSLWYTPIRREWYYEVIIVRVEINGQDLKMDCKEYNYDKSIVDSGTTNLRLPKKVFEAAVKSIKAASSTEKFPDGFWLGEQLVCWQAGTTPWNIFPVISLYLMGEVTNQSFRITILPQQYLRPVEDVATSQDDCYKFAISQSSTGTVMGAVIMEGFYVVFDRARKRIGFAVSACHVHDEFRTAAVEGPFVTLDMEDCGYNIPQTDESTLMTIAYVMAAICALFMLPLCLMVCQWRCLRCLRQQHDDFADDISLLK

Structure (SMILES) | pIC50 (MCF7) | other results
O=C(/C=C/c1ccc(N2CCN(CCO)CC2)cc1)c1ccc(Cl)cc1 | 4.30 | –
O=C(/C=C/c1ccc(N(Cc2ccccc2)Cc2ccccc2)cc1)c1ccco1 | – | zone of inhibition at 10000 µM [1]: 15 mm
COc1cc(C(=O)/C=C/c2ccc(N(Cc3ccccc3)Cc3ccccc3)cc2)cc(OC)c1OC | – | inhibition [2]: Active
O=C(/C=C/c1ccc(N2CCN(CCO)CC2)cc1)c1ccc(Br)cc1 | 4.30 | –
